The term kinetic solubility denotes the concentration staying in solution when a stock, usually in DMSO, is diluted into the medium. The term chromatographic logD denotes a lipophilicity value derived from retention on a column.

SMILES strings stand for the structures. Values after ≈ are worked out from the molar mass of the structure shown. Like-named read-outs stand apart in the source and are kept apart here.

The test system of data set [1] is ATX. On the set-up: method as in PMID 23688339. As to conditions: read-out: IC50 (inhibitory properties); cited from earlier work.
The subject of another data set is LPA plasma levels. As to conditions: cited from earlier work.
The nature of data set [2]: in vitro plasma stability, rat plasma. In kind it is in vitro ADME. As to conditions: after 4 h. How it is done:
(§1) The in vitro plasma stability of the test compounds was studied in human and rat plasma with propranolol, benflorex, and eucatropine as control substances. All compounds at final concentrations of 5 μM (0.5% DMSO) were incubated in a phosphate buffer (50 mM, pH 7.4) for 4 h at 37 °C together with plasma. Aliquots were taken at different time points (0, 30, 120 min and 4 h), followed by reaction termination by the addition of CH3CN:CH3OH 2:1 v/v., which contained diclofenac and warfarin as internal standards (IS). Samples were then centrifuged (at 1600 rpm at 4 °C for 30 min), and the resulting supernatants were subjected to LC/MS/MS analysis. Results are expressed as % remaining.

Data set [3] can be described thus: plasma protein binding, equilibrium dialysis, rat plasma. In kind it is in vitro ADME. As to conditions: pH 7.4, rat plasma. As for the experimental part:
(§2) Plasma protein binding was measured using the equilibrium dialysis technique. Positive controls included in this assay were: Acebutolol (low binding) and nicardipine (very high binding). The assay was performed in a 96-well Teflon dialysis unit, where each well consisted of two chambers separated by a dialysis membrane. Plasma (human and rat, commercially obtained from Seralab) spiked with each compound (final concentration: 5 µM, 0.5% DMSO) were added to one chamber, and a blank buffer solution (60 mM Na2HPO4/14 mM KH2PO4/70 mM NaCl; pH 7.4) was added to the other side of the well. Each compound was analyzed in duplicate, for 4 h at 37 °C. After 4 h, both the plasma (free and bound fraction) and buffer (only free fraction) side of the well were sampled, matrix matched, then precipitated with a STOP solution (CH3CN:CH3OH 2:1 v/v, containing diclofenac as internal standard), and centrifuged at 2000 rpm for 30 min (+4 °C). The resulting supernatants were analyzed by LC-MS/MS. The fraction bound was calculated as the concentration difference (analyte vs. internal standard peak area ratio) in the plasma and buffer sides divided by the total concentration in the plasma side. Sampling was also performed from spiked plasma at t = 0 min in order to determine recovery, i.e., % of compound detected at t = 4 h in both the plasma and buffer chambers divided by the compound detected at t = 0 min.
A general note: In equilibrium dialysis free small molecules cross a membrane that holds back macromolecules.

Data set [4] in a line: metabolic stability in rat liver microsomes. The data set is classed as in vitro ADME. How it is done:
(§3) Metabolic stability was assessed in rat and human liver microsomes, with testosterone and propranolol as positive controls. All compounds, at a final concentration of 1 μM (0.03% DMSO), were incubated in a phosphate buffer (50 mM, pH 7.4) for 60 min at 37 °C, together with liver microsomes in the absence and presence of NADPH generating system (nicotinamide adenine dinucleotide phosphate (NADP, 2 mM), glucose-6-phosphate (20 mM), glucose-6-phosphate dehydrogenase (6U) and magnesium chloride (2 mM)). Aliquots were taken at different time points (0, 10, 20, 30, 45 and 60 min), followed by reaction termination by addition of CH3CN:CH3OH 2:1 v/v, containing diclofenac as internal standard (IS). Samples were then centrifuged (at 2000 rpm at 4 °C for 30 min), and resulting supernatants were subjected to LC/MS/MS analysis. The in vitro half-life was calculated in GraphPadPrism software from % remaining vs. time regression using non-linear regression fit. In vitro intrinsic clearance, expressed as mL/min/g liver, was determined from in vitro half-life and normalized for the protein concentration in the incubation mixture, assuming a 52.5 mg/g liver.

A short description of data set [5]: kinetic solubility, turbidimetric method. The data set is classed as physicochemical. As to conditions: 37 °C, pH 7.4, aqueous buffer, kinetic from dmso stock, Solubility (kinetic solubility range). As for the experimental part:
Turbidimetric solubility allows for a rapid determination of kinetic solubility by using small amounts of the test compound. Assay controls were α-naphtoflavone (low solubility) and sulfaphenazole (expected solubility >100µM). DMSO stock solutions (10 mM) of each compound were first serially diluted 1 in 3 in DMSO and then spiked into an aqueous buffer (100 mM PBS), resulting in 5 following final concentration: 100, 30, 10, 3 and 1 µM (each concentration was tested in duplicate). […] Compound samples were compared to a solvent control in an aqueous buffer (DMSO 1% final concentration), and a significant increase of sample absorbance was considered to have occurred when the absorbance reached a 3-fold standard deviation of the average DMSO absorbance. The calculation of solubility range data was made by Excel tool software. Results are expressed as an estimated solubility range.

Data set [6] in a line: in vitro plasma stability, human plasma. The note with it: after 4 h. In kind it is in vitro ADME. How it is done: as §1
Data set [7] in a line: Chrom logD determination by gradient HPLC (CHI). As to conditions: reversed-phase HPLC, Phenomenex Luna C18 column; pH 7.4, Luna C18 column. The data set is classed as physicochemical. How it is done:
clogP values were calculated for all compounds using the Percepta software. Chrom logD was determined experimentally using a procedure described in the supplementary data. Furthermore, the correlation between calculated clogP values and experimentally determined Chrom log D values were explored for molecules containing boron functional groups such as boronic acids and benzoxaboroles.
Chrom logD values were determined from the following equation: Chrom logD = 0.0857 × CHI − 2 [39]. Chromatographic hydrophobic index (CHI) values were determined from the gradient retention times (RT). These values approximately corresponded to the volume percentage of organic component in the mobile phase when the compound elutes. CHI values were determined at pH 7.4. Chromatograms were obtained using on Agilent 1100 Series liquid chromatography system with an HPLC diode-array detector (DAD) coupled with a Micromass Quattro micro atmosphere pressure ionization (API) mass spectrometer. The column used for analyses was Phenomenex Luna C18 (50 × 3 mm, 5 µm, 100 Å). The column was maintained at 25 °C. The flow rate was 1.0 mL/min. The mobile phase was composed of 50 mM ammonium acetate in water at pH 7.4 (solvent A) and acetonitrile (solvent B). The solvent gradient condition was initially 0.5% B, and then it increased linearly to 100% B over 3.0 min, remaining at 100% B for 0.5 min, then decreasing linearly to 0% B over 0.2 min followed by an equilibration period of 1.3 min prior to the next injection. The total experimental duration was 5 min. Injection volume was 2.0 µl. Samples temperature was maintained at 15 °C in the autosampler chamber. A group of ten standard compounds having different CHI values was used for calibration of RP-HPLC [40].

Another data set deals with T1, Autotaxin (ATX) (Homo sapiens, UniProt Q13822).
T1 construct: we added 10 μL of recombinant ATX (2 ng/mL) in a Tris–HCl buffer
Nature of the data set: biochemical choline detection assay for ATX inhibition, LysoPC substrate. As to conditions: choline release assay using as a substrate; mean standard deviation from duplicate experiments. As for the experimental part: All 21 new benzoxaboroles derivatives prepared herein were evaluated for ATX inhibition in vitro using a biochemical choline detection assay, combining elements of assays already described in the literature.
[…] Mother plates with serial dilutions of compounds in pure DMSO were prepared from 10 mM DMSO stock solutions. Storplate-384-deep-well-V plates (Perkin Elmer) were also used for mother plate preparation. Compounds were diluted in a DMSO in a ratio of 1:3. An aliquot of 200 nL of compound solution was transferred from the mother plate to the test plate with a Mosquito nanoliter liquid handling system (TTP labtech). The assay was performed in Spectra-Plate-384 TC, transparent, (Perkin Elmer, Cat#6007658) using a 20 µL assay volume. The total final percentage of DMSO in the test media was 1%. Compounds were tested at 11 consecutive three-fold dilutions starting from 50 µM (final concentrations) in duplicate, covering range of 0.0008–50 μM to determine IC50 values. […] After dispensing of compounds directly to the dry plate, we added 10 μL of recombinant ATX (2 ng/mL) in a Tris–HCl buffer (140 mM NaCl, 1mM MgCl2, 5 mM KCl, 3 mM CaCl2, 1 mg/ml bovin serum albumin (BSA, fatty acid free) and 100 mM Tris–HCl, pH 9). […] The above-described solution with dimethyl sulfoxide but without the test compound was used as a control. LysoPC without ATX was used as a control for the autohydrolysis of LysoPC. After 1.5 h of incubation, 20 μL of stop solution and developer was added {Choline oxidase (1.2 U/mL), Peroxidase (1.2 U/mL), TOOS (2.7 mM), 4-Aminoantipyrine (2.7 mM), and EDTA (50 mM)} to the reaction mixture, and absorbance was measured after 30 min of incubation. The absorbance was measured by using Perkin-Elmer EnVision plate reader (λ = 555 nm). Data were analyzed using GraphPad Prism software. The calculation of IC50 data, curves and quality control (QC) analysis was made by using Excel tools and GraphPadPrism software. Briefly, individual concentration–effect curves were generated by plotting the logarithm of the tested concentration of tested compounds (X) vs. corresponding percentage inhibition values (Y) using a least squares (ordinary) fit. […] QC criteria parameters (Z,’ S:B, ΔmP) were checked for every plate.

Data set [8] can be described thus: plasma protein binding, equilibrium dialysis, human plasma. The data set is classed as in vitro ADME. As to conditions: pH 7.4, read-out: PPB: fraction bound, human (converted). As for the experimental part: as §2
A short description of data set [9]: metabolic stability in human liver microsomes. The data set is classed as in vitro ADME. As for the experimental part:
as §3

For data set [10] the following is noted: cited from earlier work.
The subject of data set [11] is ATX. The note with it: read-out: reported activity in in vitro LPC choline release assay; cited from earlier work.
For data set [12], the system named is A2058 human melanoma cells. The note with it: dose-dependent manner; cited from earlier work.
On the set-up of data set [13]: method as in PMID 23688339. As to conditions: cited from earlier work.
For another data set, the system named is glioma tumor. On the set-up: method as in PMID 30462853. The note with it: in vivo; cited from earlier work.
The next data set deals with glioblastoma cell lines. The arrangement: method as in PMID 30462853. The note with it: cited from earlier work.
The mark [14] stands for this setting: read-out: PPB: fraction bound, rat (converted).
Setting [15] is: mice, intravenous administration 1 nmol/g.

Regarding `O=C1N=C(N2CCN(Cc3cccc(B(O)O)c3)CC2)SC1=Cc1ccc(Cl)c(Cl)c1` [Compound 3BoA], the IC50 with ATX [1] was 0.013 µM. The LPA plasma levels entry in the data set with LPA plasma levels (mice, 4 mg/kg i.v. injection) is recorded as “significantly decreases LPA plasma levels (almost to zero)”. The “plasma LPA levels” value with LPA plasma levels (mice, 4 mg/kg intravenous administration) is on record as “decreases rapidly plasma LPA levels”.
Regarding `Cc1cc(C)cc(COC(=O)N2CCN(C3CCN(C(=O)c4ccc5c(c4)B(O)OC5)C3)CC2)c1` (stereo not drawn) [Compound 43, (3,5-dimethylphenyl)methyl 4-[1-(1-hydroxy-3H-2,1-benzoxaborole-6-carbonyl)pyrrolidin-3-yl]piperazine-1-carboxylate], in data set [2], the “PS (plasma stability), rat” value worked out at 59.5 %remaining. Moreover, the fraction unbound at 4 h, 5 µM is 0.039 in [3] (setting [14]) and 0.022 in data set [8]. Also, the “LMS: predicted in vivo hepatic clearance, rat” value (“LMS: predicted … rat” below) in data set [4] is on record as 80 %LBF. This molecule displayed a kinetic solubility at 1 h in data set [5] above 100 µM. Further, the “PS (plasma stability), human” value in data set [6] was determined as 79.2 %remaining. In data set [7], this molecule had a chromatographic logD of 4.13. For the same molecule, the IC50 against Autotaxin (ATX) worked out at 2.7 ± 2.11 µM. Moreover, the “LMS: predicted in vivo hepatic clearance, human” value (from here on “LMS: predicted … human”) in [9] was 85 %LBF.
On to `Cc1cc(C)cc(COC(=O)N2CCN(C3CN(C(=O)c4ccc5c(c4)B(O)OC5)C3)CC2)c1` [Compound 45, (3,5-dimethylphenyl)methyl 4-[1-(1-hydroxy-3H-2,1-benzoxaborole-6-carbonyl)azetidin-3-yl]piperazine-1-carboxylate], for which, in [2], the “PS (plasma stability), rat” value came to 68.6 %remaining. Besides, the fraction unbound at 4 h, 5 µM is 0.056 in data set [3] (setting [14]) and 0.041 in data set [8]. The “LMS: predicted … rat” value in data set [4] is given as 61 %LBF. This molecule displayed a solubility (kinetic) at 1 h in data set [5] above 100 µM. The “PS (plasma stability), human” value in data set [6] is reported as 72.8 %remaining. Further, the chromatographic logD in [7] came to 4.17. This molecule also came in with an IC50 against Autotaxin (ATX) of 1 ± 1.15 µM. Besides, the “LMS: predicted … human” value in data set [9] is listed as 84 %LBF.
On to `O=C1S/C(=C\c2ccc(OCc3cccc(B(O)O)c3)cc2)C(=O)N1Cc1ccc(F)cc1` [HA130], for which the half-life in vivo entry in data set [10] was “less than five”. In addition, in the data set with ATX [11], the IC50 was 0.028 µM. Besides, the “ATX-mediated migration of A2058 human melanoma cells” value in data set [12] is “inhibited”. Besides, the “LPA in the in vivo study” value in the data set on LPA plasma levels was “lowering LPA significantly”. Also, in the data set with LPA plasma levels (setting [15]), the “LPA levels in the plasma” value is on record as “rapid decrease of LPA levels” and the toxicity entry is listed as “no overt toxicity issues observed”.
Turning to `O=C1S/C(=C\c2ccc(OCc3ccc(B(O)O)cc3)cc2)C(=O)N1Cc1ccc(F)cc1` [HA155, reference compound], the half-life in vivo entry in data set [10] was “less than five”. In addition, in data set [2], the “PS (plasma stability), rat” value is listed as 65.7 %remaining. Further, the fraction unbound at 4 h, 5 µM is 0.001 in data set [3] (setting [14]); 0.004 in data set [3] (read-out: fraction unbound, rat plasma); below 0.001 in [8]. In addition, the “LMS: predicted … rat” value in [4] is below 30 %LBF. In addition, the “PS (plasma stability), human” value in data set [6] is 42.9 %remaining. Further, the “Solubility, value taken from literature” value in data set [13] is 6.8 µM (≈ 3.15 µg/mL). In addition, the “LMS: predicted … human” value in data set [9] is on record as 54 %LBF. Further, in the data set on LPA plasma levels, the “LPA in the in vivo study” value is “lowering LPA significantly”.
Turning to `O=C(CCN1CCN(C(=O)OCc2cc(Cl)cc(Cl)c2)CC1)c1ccc2[nH]c(=O)oc2c1` [PF-8380], in the data set on glioma tumor, the “glioma tumor growth progression” value was “delaying simultaneously glioma tumor growth progression”. The anti-invasive effect entry in the data set with glioblastoma cell lines is on record as “significant anti-invasive effect”.
